Measured values reported in ChEMBL document CHEMBL1137486, “N4-phenyl modifications of N2-(2-hydroxyl)ethyl-6-(pyrrolidin-1-yl)-1,3,5-triazine-2,4-diamines enhance glucocerebrosidase inhibition by small molecules with potential as chemical chaperones for Gaucher disease” (Bioorg Med Chem Lett, 2007).
The source made the active and inactive calls. The calls are words filed in the database; no cut-off is given here.

Each molecule was assayed on Oryza sativa (assay: Inhibition of rice alpha glucosidase upto 77 uM).

Activity | SMILES
inactive | CC(C)(C)Oc1ccccc1Nc1nc(NCCO)nc(N2CCCC2)n1

Each molecule was assayed against Alpha-galactosidase (Coffea arabica) (UniProt Q5DUH8) (assay: Inhibition of coffee bean alpha galactosidase upto 77 uM).
Alpha-galactosidase (Coffea arabica), sequence (Q5DUH8 as listed by the source): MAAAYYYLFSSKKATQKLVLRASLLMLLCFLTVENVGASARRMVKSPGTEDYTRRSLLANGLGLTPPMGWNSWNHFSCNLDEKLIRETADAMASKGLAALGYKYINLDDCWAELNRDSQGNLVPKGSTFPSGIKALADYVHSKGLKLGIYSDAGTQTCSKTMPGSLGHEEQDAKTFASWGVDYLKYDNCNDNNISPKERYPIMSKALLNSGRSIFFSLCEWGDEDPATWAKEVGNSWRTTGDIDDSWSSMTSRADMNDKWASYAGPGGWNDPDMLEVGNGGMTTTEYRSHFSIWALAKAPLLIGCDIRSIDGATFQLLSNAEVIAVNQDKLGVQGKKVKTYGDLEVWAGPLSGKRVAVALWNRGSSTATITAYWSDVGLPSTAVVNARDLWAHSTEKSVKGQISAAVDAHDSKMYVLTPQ

Activity | SMILES
inactive | CC(C)(C)Oc1ccccc1Nc1nc(NCCO)nc(N2CCCC2)n1

What follows are molecules tested against T1, Beta-hexosaminidase subunit alpha (Bos taurus) (UniProt Q0V8R6) (assay: Inhibition of bovine beta hexosaminidase upto 77 uM).
T1 sequence (whole entry): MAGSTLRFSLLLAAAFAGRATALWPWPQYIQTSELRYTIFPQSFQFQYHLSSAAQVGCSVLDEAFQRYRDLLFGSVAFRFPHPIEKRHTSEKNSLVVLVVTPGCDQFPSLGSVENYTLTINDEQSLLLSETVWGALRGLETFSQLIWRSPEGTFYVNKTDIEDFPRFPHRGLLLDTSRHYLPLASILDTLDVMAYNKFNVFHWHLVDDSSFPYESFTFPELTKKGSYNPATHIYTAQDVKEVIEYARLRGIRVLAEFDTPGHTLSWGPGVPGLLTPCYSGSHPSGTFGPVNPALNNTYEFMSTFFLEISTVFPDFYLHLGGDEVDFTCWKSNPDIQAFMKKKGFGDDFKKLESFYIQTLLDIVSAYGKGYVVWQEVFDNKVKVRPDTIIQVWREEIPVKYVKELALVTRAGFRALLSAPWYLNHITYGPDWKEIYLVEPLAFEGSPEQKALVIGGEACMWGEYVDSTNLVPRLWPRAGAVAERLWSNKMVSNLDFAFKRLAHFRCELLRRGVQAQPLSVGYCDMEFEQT

Activity | SMILES
inactive | CC(C)(C)Oc1ccccc1Nc1nc(NCCO)nc(N2CCCC2)n1

Each molecule was assayed against T2, Lysosomal acid glucosylceramidase (Homo sapiens, UniProt P04062) (assay: (§1) Inhibition of glucocerebrosidase).
T2 sequence (P04062 whole entry): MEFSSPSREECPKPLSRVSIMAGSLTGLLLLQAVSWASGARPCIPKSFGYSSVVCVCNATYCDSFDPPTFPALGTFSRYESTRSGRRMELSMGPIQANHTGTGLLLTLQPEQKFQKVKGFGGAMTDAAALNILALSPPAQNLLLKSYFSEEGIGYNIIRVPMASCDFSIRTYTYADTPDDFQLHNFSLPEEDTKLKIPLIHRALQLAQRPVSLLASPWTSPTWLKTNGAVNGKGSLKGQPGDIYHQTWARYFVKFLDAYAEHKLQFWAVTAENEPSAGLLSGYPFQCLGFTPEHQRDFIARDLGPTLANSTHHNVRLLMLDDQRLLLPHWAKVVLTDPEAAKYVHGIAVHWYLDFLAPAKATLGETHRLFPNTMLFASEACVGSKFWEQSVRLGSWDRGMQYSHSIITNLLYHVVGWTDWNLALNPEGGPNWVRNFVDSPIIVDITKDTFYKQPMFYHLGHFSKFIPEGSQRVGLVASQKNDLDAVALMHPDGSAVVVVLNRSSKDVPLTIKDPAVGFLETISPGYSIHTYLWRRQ

IC50 [µM] | SMILES
8.8 | COc1ccc(Nc2nc(NCCO)nc(N3CCCC3)n2)cc1
0.37 | OCCNc1nc(Nc2cc(-c3ccccc3)ccc2O)nc(N2CCCC2)n1
6.69 | OCCNc1nc(Nc2cccc(Cl)c2)nc(N2CCCC2)n1
6.19 | Cc1cccc(Nc2nc(NCCO)nc(N3CCCC3)n2)c1
6.1 | CCCCNc1nc(NCCO)nc(Nc2ccccc2OC)n1
0.33 | CC(C)(C)Oc1ccccc1Nc1nc(NCCO)nc(N2CCCC2)n1
31.1 | COc1ccc(Cl)cc1Nc1nc(NCCO)nc(N2CCCCC2)n1
1.08 | COc1ccccc1Nc1nc(NCCO)nc(N2CCCC2)n1
1.04 | CC(C)(C)Oc1ccc(Cl)cc1Nc1nc(NCCO)nc(N2CCCC2)n1
2 | OCCNc1nc(Nc2ccccc2O)nc(N2CCCC2)n1
7.75 | COc1ccccc1Nc1nc(NCCO)nc(N2CCC(F)(F)C2)n1
7.77 | CCCCNc1nc(Nc2cc(Cl)ccc2OC)nc(N2CCCC2)n1
0.73 | OCCNc1nc(Nc2cc(Cl)ccc2O)nc(N2CCCC2)n1
0.77 | CCOc1ccccc1Nc1nc(NCCO)nc(N2CCCC2)n1
2.65 | COc1ccc(C(F)(F)F)cc1Nc1nc(NCCO)nc(N2CCCC2)n1
2.39 | CSc1ccccc1Nc1nc(NCCO)nc(N2CCCC2)n1
12.1 | COc1ccc(Cl)cc1Nc1nc(NCCO)nc(N2CCOCC2)n1
10 | Cc1ccc(Nc2nc(NCCO)nc(N3CCCC3)n2)cc1

IC50 [µM] | SMILES
0.96 | CCOc1ccc(Cl)cc1Nc1nc(NCCO)nc(N2CCCC2)n1
21.7 | OCCNc1nc(Nc2ccccc2Oc2ccccc2)nc(N2CCCC2)n1
3.44 | CC(C)Oc1ccc(Cl)cc1Nc1nc(NCCO)nc(N2CCCC2)n1
20.7 | COc1ccccc1Nc1nc(NCC(C)O)nc(N2CCCC2)n1 (configuration not stated)
2.22 | COc1ccc(-c2ccccc2)cc1Nc1nc(NCCO)nc(N2CCCC2)n1
6.8 | COc1ccccc1Nc1nc(NCC(O)Cc2ccccc2)nc(N2CCCC2)n1 (configuration not stated)
18.8 | COc1ccccc1Nc1nc(NCCO)nc(NCc2ccccc2)n1
8.25 | COc1cccc(Nc2nc(NCCO)nc(N3CCCC3)n2)c1
2.31 | COc1ccccc1Nc1nc(NCCO)nc(N2CCC2)n1
4.9 | COc1ccc(Nc2nc(NCCO)nc(N3CCCC3)n2)c(OC)c1
31.4 | OCCNc1nc(Nc2ccccc2OCc2ccccc2)nc(N2CCCC2)n1
16.5 | OCCNc1nc(Nc2ccccc2)nc(N2CCCC2)n1
1.53 | COc1ccc(OC)c(Nc2nc(NCCO)nc(N3CCCC3)n2)c1
3.94 | Cc1ccccc1Nc1nc(NCCO)nc(N2CCCC2)n1
3.34 | OCCNc1nc(Nc2ccccc2OC(F)(F)F)nc(N2CCCC2)n1
29 | OCCNc1nc(Nc2ccccc2Cl)nc(N2CCCC2)n1
6.34 | OCCNc1nc(Nc2ccc(Cl)cc2)nc(N2CCCC2)n1

These molecules were tested against T3, Lysosomal acid glucosylceramidase (Homo sapiens) (UniProt P04062) (assay: as §1).
T3 sequence (whole entry): T2 sequence (P04062 whole entry)

Activity | SMILES
inactive | COc1ccccc1Nc1nc(NCCCCO)nc(N2CCCC2)n1
inactive | COc1ccc(Cl)cc1Nc1nc(NCCO)nc(N2CCCCCC2)n1
inactive | COc1ccccc1Nc1nc(NCCNC(C)=O)nc(N2CCCC2)n1
inactive | O=[N+]([O-])c1ccccc1Nc1nc(NCCO)nc(N2CCCC2)n1
inactive | COc1ccc(Cl)cc1Nc1nc(N(CCO)CCO)nc(N2CCCC2)n1
inactive | CC(=O)Nc1ccccc1Nc1nc(NCCO)nc(N2CCCC2)n1
inactive | COc1ccc(Cl)cc1Nc1nc(NCc2ccccc2)nc(N2CCCC2)n1
inactive | NC(=O)c1ccccc1Nc1nc(NCCO)nc(N2CCCC2)n1
inactive | COc1ccccc1Nc1nc(NCC(N)=O)nc(N2CCCC2)n1
inactive | COc1ccc(Cl)cc1Nc1nc(N)nc(N2CCCC2)n1
inactive | COc1ccc(Cl)cc1Nc1nc(NCc2ccco2)nc(N2CCCC2)n1
inactive | COC(=O)CNc1nc(Nc2ccccc2OC)nc(N2CCCC2)n1
inactive | CCN(CC)c1nc(NCCO)nc(Nc2cc(Cl)ccc2OC)n1
inactive | COCCNc1nc(Nc2cc(Cl)ccc2OC)nc(N2CCCC2)n1
